Where two headings read alike, the source gives them in different places. Values belong to the molecule of their own block, whether it stands above or below them.
How the values were obtained:
[1] = molecular target: T1, Coprinus cinereus peroxidase (CiP) (Coprinopsis cinerea, UniProt P28314); test: Initial bleaching of Direct Blue 1 by CiP with enhancer (Example 1); format: biochemical; conditions: 10 μM enhancer, 20 μM H2O2, 30° C., 610 nm
T1 construct: made in house
T1 sequence (P28314 21-363): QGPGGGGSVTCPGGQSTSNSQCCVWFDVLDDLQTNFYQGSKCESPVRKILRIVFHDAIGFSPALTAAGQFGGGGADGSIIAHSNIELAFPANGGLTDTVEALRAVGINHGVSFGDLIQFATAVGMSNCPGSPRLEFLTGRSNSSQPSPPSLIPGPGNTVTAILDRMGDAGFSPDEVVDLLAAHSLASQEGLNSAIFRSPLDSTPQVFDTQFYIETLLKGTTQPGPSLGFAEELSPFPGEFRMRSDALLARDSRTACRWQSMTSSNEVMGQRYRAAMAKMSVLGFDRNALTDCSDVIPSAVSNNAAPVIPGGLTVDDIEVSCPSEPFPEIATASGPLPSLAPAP
Experimental: The initial bleaching of Direct Blue 1 (DB1) by CiP using a selection of enhancers according to the invention was compared to the half-life of the oxidized enhancer (electron acceptor) measured under standard conditions.
Conditions for bleaching:
200 μl 50 mM Britton-Robinson* buffer
pH 8.5 and 10.5, respectively
After 5 seconds the bleaching was followed for at least 1 minute, and the initial bleaching rates (reduction in milli-absorbance units per minute, -ΔmAbs/min, determined from the initial slope of the absorbance curve) were determined.

CiP = molecular target: T2, CiP (Coprinopsis cinerea, UniProt P28314); test: Apparent kinetic constants for oxidation of enhancer by CiP (Example 9); format: biochemical, Coprinus cinereus; conditions: pH 8.5, 30° C.; for Kcat (app.): turnover number calculated as Vmax/[CiP]o
T2 construct: made in house
T2 sequence (P28314 21-363): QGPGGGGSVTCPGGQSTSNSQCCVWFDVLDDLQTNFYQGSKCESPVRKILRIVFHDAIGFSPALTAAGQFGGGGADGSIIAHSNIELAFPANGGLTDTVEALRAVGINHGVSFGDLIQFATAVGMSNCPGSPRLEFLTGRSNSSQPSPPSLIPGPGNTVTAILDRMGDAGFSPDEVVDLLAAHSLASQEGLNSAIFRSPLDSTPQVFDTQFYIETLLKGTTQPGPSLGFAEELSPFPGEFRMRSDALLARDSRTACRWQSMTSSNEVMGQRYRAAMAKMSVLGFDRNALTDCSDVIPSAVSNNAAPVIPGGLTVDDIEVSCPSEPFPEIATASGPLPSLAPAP
Experimental: (§1) The apparent kinetic constants for the oxidation of some of the enhancers of the invention, 10-ethyl-4-phenothiazinecarboxylic acid (EPC) and 10-phenothiazinepropionic acid (PTP), were determined using CiP (4nM for PTP and 3.1 nM for EPC), borate buffer (10 mM) pH 8.5, H2 O2 (50 μM) and varied concentrations of enhancer, 30° C. Formation of oxidized enhancer was monitored at 514 nm.
(§2) When Kcat (app.) is defined as the turnover number calculated as
(§3) Vmax /[CiP]o, where [CiP]o is the initial concentration of […]

[2] = Half-life of oxidized enhancer from cyclic voltammogram (Example 1); format: physicochemical; conditions: pH 10.5, enhancer 8 mM
Experimental: The half-life of the oxidized enhancers were determined from a cyclic voltammogram of the enhancers present at a concentration of 8 mM. The cyclic voltammograms were obtained in a standard three-electrode system consisting of
(§4) Working electrode Platinum disc
(§5) Counter electrode Platinum wire
(§6) Reference electrode Calomel
The half-life (t1/2) of the oxidized enhancers was calculated from the scan rates (.nu.), peak positions and switching potential in a cyclic voltammogram in which the peak current of the reducing peak had half the value of the peak current of the oxidizing peak. [formula] ΔE is the difference of the peak position of the reducing peak and the switching potential.
The switching potential was fixed at a potential 0.2 V higher than the peak position of the oxidizing peak in a reversible voltammogram. A reversible voltammogram is obtained at scan rates at which the difference between the peak positions of the oxidizing and reducing peak approaches 0.059 V.

[3] = ESR
Experimental: The stability of the ABTS radical formed by oxidation of ABTS with a recombinantly produced Coprinus cinereus peroxidase (rCiP), obtained according to Example 1, was studied by electron spin resonance technique (ESR). The ESR signal was calculated after 20 scans, where the area under curve corresponds to the concentration of the radical. The signal was integrated from 3260 Gaus to 3300 Gaus.
The stability of the radical was determined in 0.1M Britton & Robinson buffer at different pH values. A concentration of 2.27 mM H2 O2 and an enzyme concentration 34 PODU/ml was applied.
The half-lives in Table 3 measured at different concentrations have for comparison been calculated to a concentration of 250 μM assuming a 2nd order decay.

[4] = Half-life of benzidine derivatives by cyclic voltametri (Example 8); format: physicochemical; conditions: CV in DMF/H2O buffer (1/9), 2 mM, two electron transfer
Experimental: The half-life of the different benzidine derivatives was measured by cyclic voltametri (CV) in DMF/H2 O buffer (1/9) at pH 8.5 and 10.5 as described in. The concentration of the benzidines were 2 mM, and the half-life (t1/2) of the compounds is referring to a two electron transfer.

[5] = Decay of oxidized vanillin and 7-hydroxycoumarin from cyclic voltammograms (Example 7); format: physicochemical; conditions: enhancer 2 mM; comparison of experimental with simulated voltammograms
Experimental: The half-life of vanillin and 7-hydroxycoumarin was determined from cyclic voltammograms of the enhancers. The cyclic voltammograms were obtained in a three-electrode system consisting of
as §4, §5, §6
The concentration of the enhancers was 2 mM.
The order of the decay reaction of the oxidized enhancers was determined from the dependence of the peak position of the oxidizing peak (Epo) on the scan rate (.nu.). For both enhancers (δEpo /δlog.nu.)=0.019 V in the scan rate range 0.1-1.0 V/s showing that the decay reaction is 2nd order.
The rate constant of the decay reaction of the oxidized enhancers was determined from a comparison of the experimental cyclic voltammograms with simulated voltammograms. The parameters needed for the simulation are the reaction order of the decay reaction, the concentration of the enhancer, the scan rate […] the rate constant for the decay reaction as described in Analytical Chemistry, Vol. 60, p. 1159, 1988.

[6] = substrate: O=C(O)CCN1c2ccccc2Sc2ccccc21; test: Apparent kinetic constants for oxidation of enhancer by CiP (Example 9); format: biochemical, Coprinus cinereus; conditions: other: CiP 4 nM for PTP, 3.1 nM for EPC, borate buffer 10 mM pH 8.5, 50 μM H2O2, 30° C., 514 nm
Experimental: as §1, §2, §3

[7] = substrate: CCN1c2ccccc2Sc2c(C(=O)O)cccc21; test: as above; format: biochemical, Coprinus cinereus; conditions: other: CiP 4 nM for PTP, 3.1 nM for EPC, borate buffer 10 mM pH 8.5, 50 μM H2O2, 30° C., 514 nm
Experimental: as §1, §2, §3

bleaching (initial bleaching of Direct Blue 1) ([1]; pH 8.5, 2 nM CiP): 486 -ΔmAbs/min | bleaching (initial bleaching of Direct Blue 1) ([1]; pH 10.5, 1 nM CiP): 468 -ΔmAbs/min | 1/kcat (app.) (CiP): ~ 1.5 ms | Kcat (app.) (CiP): 671 ± 124 s⁻¹
Molecule: O=C(O)CCN1c2ccccc2Sc2ccccc21 [10-phenothiazine propionic acid, 10-phenothiazinepropionic acid]

bleaching (initial bleaching of Direct Blue 1) ([1]; pH 8.5, 2 nM CiP): 72 -ΔmAbs/min | bleaching (initial bleaching of Direct Blue 1) ([1]; pH 10.5, 1 nM CiP): 99 -ΔmAbs/min
Molecule: COC(=O)CCN1c2ccccc2Sc2ccccc21 [methyl-10-phenothiazine-propionate]

t1/2 of ABTS radical ([3]; pH 3, initial concentration 0.45 mM, 0.1M Britton & Robinson buffer): 83 h | t1/2 of ABTS radical ([3]; pH 4, initial concentration 0.45 mM): 66 h | t1/2 of ABTS radical ([3]; pH 6, initial concentration 0.45 mM): 6.75 h | t1/2 of ABTS radical ([3]; pH 7, initial concentration 0.24 mM): 1.4 h | t1/2 of ABTS radical ([3]; pH 8.7, initial concentration 0.24 mM): 0.67 h
Molecule: CCn1c(=NN=c2sc3cc(S(=O)(=O)O)ccc3n2CC)sc2cc(S(=O)(=O)O)ccc21 [ABTS, 2,2'-azino-bis (3-ethylbenzothiazoline-6-sulfonate)]

rate constant for the decay reaction of the oxidized enhancer [5]: ~10^8 M^-1 s^-1
Molecule: COc1cc(C=O)ccc1O [vanillin]

Continued, molecule first:

Molecule: CCN1c2ccccc2Sc2c(C(=O)O)cccc21 [10-ethyl-4-phenothiazine-carboxylic acid, 10-ethyl-4-phenothiazinecarboxylic acid]
t1/2 (half-life of the oxidized enhancer) [2]: 2.5 s | bleaching (initial bleaching of Direct Blue 1) ([1]; pH 8.5, 2 nM CiP): 816 -ΔmAbs/min | bleaching (initial bleaching of Direct Blue 1) ([1]; pH 10.5, 1 nM CiP): 864 -ΔmAbs/min | 1/kcat (app.) (CiP): ~ 1 ms | Kcat (app.) (CiP): 997 ± 64 s⁻¹

Molecule: CC(=O)c1ccc2c(c1)N(C)c1ccccc1S2 [2-acetyl-10-methyl-phenothiazine]
bleaching (initial bleaching of Direct Blue 1) ([1]; pH 8.5, 2 nM CiP): 27 -ΔmAbs/min | bleaching (initial bleaching of Direct Blue 1) ([1]; pH 10.5, 1 nM CiP): 25 -ΔmAbs/min

Molecule: CN1c2ccccc2Sc2ccccc21 [10-methyl-phenothiazine]
bleaching (initial bleaching of Direct Blue 1) ([1]; pH 8.5, 2 nM CiP): 240 -ΔmAbs/min | bleaching (initial bleaching of Direct Blue 1) ([1]; pH 10.5, 1 nM CiP): 480 -ΔmAbs/min

Molecule: Cc1cc(-c2cc(C)c(N)c(C)c2)cc(C)c1N [3,3',5,5'-tetramethyl-benzidine, 3,3',5,5'-tetramethylbenzidine]
t1/2 (half-life of oxidized enhancer) ([4]; pH 8.5): 4.5 s | t1/2 (half-life of oxidized enhancer) ([4]; pH 10.5): 5 s

Molecule: O=c1ccc2ccc(O)cc2o1 [7-hydroxycoumarin]
rate constant for the decay reaction of the oxidized enhancer [5]: ~10^8 M^-1 s^-1

B1: CiP (Coprinopsis cinerea) (protein)
chain: QGPGGGGSVTCPGGQSTSNSQCCVWFDVLDDLQTNFYQGSKCESPVRKILRIVFHDAIGFSPALTAAGQFGGGGADGSIIAHSNIELAFPANGGLTDTVEALRAVGINHGVSFGDLIQFATAVGMSNCPGSPRLEFLTGRSNSSQPSPPSLIPGPGNTVTAILDRMGDAGFSPDEVVDLLAAHSLASQEGLNSAIFRSPLDSTPQVFDTQFYIETLLKGTTQPGPSLGFAEELSPFPGEFRMRSDALLARDSRTACRWQSMTSSNEVMGQRYRAAMAKMSVLGFDRNALTDCSDVIPSAVSNNAAPVIPGGLTVDDIEVSCPSEPFPEIATASGPLPSLAPAP
notes: made in house
Km [6]: 53 µM | Km [7]: 31 µM
